Results: patent publication US20260183303A1, “PDK1 REGULATORY COMPOUND AND COMPOSITION CONTAINING THE SAME” (PROVIBIO CO., LTD., priority 2024, published 2026)
Where a name gives a salt, the structure may show the parent alone.

Legend:
[1] = tested on: Human B Lymphocyte cell line, SU-DHL-8; assay: Relative cell viability (CCK-8), SU-DHL-8; format: cell-based; settings: for Relative cell viability (%): 48 hours, untreated cells (DMSO) = 100%
Procedure: Human-derived B lymphoma cell line SU-DHL-8 (Cat. #CRL-2961) purchased from ATCC was cultured in RPMI-1640 medium containing […], 100 U/mL penicillin, and 100 μg/mL streptomycin.
The cell culture medium was then harvested, centrifuged at 1,300 rpm for 5 minutes, and the supernatant was removed. The cells were resuspended in the same medium and dispensed into a 96-well plate (Costar 96-well cell culture plate, Corning) at 90 μL per well, resulting in the conditions specified in Table 5.
Then, 10 μL of CCK-8 was added to each well, and the plates were incubated again at 37° C. in a 5% CO2 incubator for 4 hours.
In other words, when the survival rate of untreated cells (DMSO) is set at 100%, the relative cell survival rate in each group treated with the drug at different concentrations is indicated.

[2] = tested on: T cells isolated from mouse spleens; assay: T cell proliferation inhibition (CFSE flow cytometry, anti-CD3/anti-CD28 activation); format: cell-based, C57BL/6 mice; settings: mouse spleen T cells, CD3/CD28 activated, cultured three days
Procedure: To verify the T cell proliferation inhibitory effect of the compounds according to the present invention, the following experiment was performed based on flow cytometry analysis using carboxyfluorescein diacetate succinimidyl ester (CFSE), a fluorescent dye that binds to intracellular molecules via covalent bonds.
Spleens were extracted from 7-week-old C57BL/6 mice, ground, and then separated into single cells using a strainer ([…], SPL). Red blood cells were removed using ACK (Ammonium-Chloride-Potassium) lysis buffer to isolate white blood cells.
Finally, using a MACS Magnetic Stand and LS column, T cells were isolated from the spleen.
The T cells isolated from the spleen were resuspended in 1 mL of free medium (RPMI-1640+200 U/mL penicillin+200 μg/mL streptomycin), and 0.3 μL of CFSE (10 mM) was added. The mixture was incubated at 37° C. for 5 minutes.
Free medium (10 mL) was added to stop the reaction, and the cells were centrifuged to obtain the cell pellet.
RPMI 1640 medium containing 10% FBS, 100 U/mL penicillin, 100 μg/mL streptomycin, and resuspended the cells. The cells were then seeded into a 96-well plate at a density of 2×10^5 cells per well and activated with CD3 and CD28 antibodies ([…]) to activate T cells.
The compound diluted in DMSO was added at concentrations of 10 nM, 100 nM, 1 μM, […], 30 μM, and 50 µM, with three wells per concentration, and cultured at 37° C. and 5% CO2 for three days. The cells were then analyzed using a FACS Canto instrument.
The proliferation inhibition rate (%) was calculated using the following formula: […]

| Compound | Relative cell viability (%) ([1]; SU-DHL-8, 1 μM) | Proliferation inhibition rate (%) ([2]; 100 nM) | Proliferation inhibition rate (%) ([2]; 1 μM) | Proliferation inhibition rate (%) ([2]; 10 μM) | Proliferation inhibition rate (%) ([2]; 30 μM) | Proliferation inhibition rate (%) ([2]; 50 μM) | Relative cell viability (%) ([1]; SU-DHL-8, 30 μM) | Relative cell viability (%) ([1]; SU-DHL-8, 50 μM) | Relative cell viability (%) ([1]; SU-DHL-8, 10 μM) | Proliferation inhibition rate (%) ([2]; 10 nM) | viability at 1 µM ([1]; Homo sapiens, SU-DHL-8, 48 h, read-out: Relative cell viability (%), SU-DHL-8, 1 μM, untreated cells (DMSO) = 100%) [%] | viability at 10 µM ([1]; Homo sapiens, SU-DHL-8, 48 h, read-out: Relative cell viability (%), SU-DHL-8, 10 μM, untreated cells (DMSO) = 100%) [%] | viability at 30 µM ([1]; Homo sapiens, SU-DHL-8, 48 h, read-out: Relative cell viability (%), SU-DHL-8, 30 μM, untreated cells (DMSO) = 100%) [%] | viability at 50 µM ([1]; Homo sapiens, SU-DHL-8, 48 h, read-out: Relative cell viability (%), SU-DHL-8, 50 μM, untreated cells (DMSO) = 100%) [%] | inhibition at 0.01 µM ([2]; Mus musculus, T-cell, 72 h, 10 nM, read-out: Proliferation inhibition rate (%)) [%] | inhibition at 0.1 µM ([2]; Mus musculus, T-cell, 72 h, 100 nM, read-out: Proliferation inhibition rate (%)) [%] | inhibition at 1 µM ([2]; Mus musculus, T-cell, 72 h, 1 μM, read-out: Proliferation inhibition rate (%)) [%] | inhibition at 10 µM ([2]; Mus musculus, T-cell, 72 h, 10 μM, read-out: Proliferation inhibition rate (%)) [%] | inhibition at 30 µM ([2]; Mus musculus, T-cell, 72 h, 30 μM, read-out: Proliferation inhibition rate (%)) [%] | inhibition at 50 µM ([2]; Mus musculus, T-cell, 72 h, 50 μM, read-out: Proliferation inhibition rate (%)) [%] |
| --- | --- | --- | --- | --- | --- | --- | --- | --- | --- | --- | --- | --- | --- | --- | --- | --- | --- | --- | --- | --- |
| Cl.Nc1ncccc1C(=O)NCCCCCCCCCCCCN1CC[C@H](N)C1 [Compound 50, (S)-2-Amino-N-(12-(3-aminopyrrolidin-1-yl)dodecyl) nicotinamide hydrochloride] | 9.20 | 100.00 | 100.00 | 100.00 | 100.00 | 100.00 | – | – | – | – | – | – | – | – | – | – | – | – | – | – |
| Cc1ccc(C2CCN(CCCCCCCCCCCCNC(=O)c3cccnc3N)CC2)cc1 [Compound 55, 2-Amino-N-(12-(4-(p-tolyl)piperidin-1-yl)dodecyl) nicotinamide] | – | 100.00 | 100.00 | 100.00 | 100.00 | 100.00 | 1.10 | 0.97 | – | – | – | – | – | – | – | – | – | – | – | – |
| CC1CNCCN1CCCCCCCCCCCCNC(=O)c1cccnc1N (stereo not drawn) [Compound 35, 2-Amino-N-(12-(2-methylpiperazin-1-yl)dodecyl) nicotinamide] | – | 100.00 | 100.00 | 100.00 | 100.00 | 100.00 | 0.42 | – | 0.64 | – | – | – | – | – | – | – | – | – | – | – |
| Nc1ncccc1C(=O)NCCCCCCCCCCCCN1CCN(Cc2ccc(F)cc2)CC1 [Compound 27, 2-Amino-N-(12-(4-(4-fluorobenzyl)piperazin-1-yl)dodecyl) nicotinamide] | 6.24 | 83.33 | 100.00 | 100.00 | 100.00 | 100.00 | 2.03 | 0.56 | 4.97 | 2.27 | – | – | – | – | – | – | – | – | – | – |
| CN1CCN(C2CCN(CCCCCCCCCCCCNC(=O)c3cccnc3N)CC2)CC1 [Compound 124, 2-Amino-N-(12-(4-(4-methylpiperazin-1-yl)piperidin-1-yl)dodecyl) nicotinamide] | 30.43 | 20.00 | 30.00 | 100.00 | 100.00 | 100.00 | 32.10 | 31.72 | 30.70 | 0.00 | – | – | – | – | – | – | – | – | – | – |
| Cc1ccc(OC2CCN(CCCCCCCCCCCCNC(=O)c3cccnc3N)CC2)cc1 [Compound 51, 2-Amino-N-(12-(4-(p-tolyloxy)piperidin-1-yl)dodecyl) nicotinamide] | – | – | 100.00 | 100.00 | 100.00 | 100.00 | 0.89 | 0.48 | – | 0.77 | – | – | – | – | – | – | – | – | – | – |
| CC1CN(CCCCCCCCCCCCNC(=O)c2cccnc2N)CC(C)O1 (stereo not drawn) [Compound 21, 2-Amino-N-(12-(2,6-dimethylmorpholino)dodecyl) nicotinamide] | – | 100.00 | 100.00 | 100.00 | 100.00 | 100.00 | 3.70 | – | – | – | – | – | – | – | – | – | – | – | – | – |
| O=C(NCCCCCCCCCCCCN1CCNCC1)c1ccc(-c2ccccc2)o1 [Compound 90, 5-Phenyl-N-(12-(piperazin-1-yl)dodecyl)furan-2-carboxamide hydrochloride] | – | – | – | – | – | – | – | – | – | – | 7.19 | 5.94 | 2.48 | 1.94 | -8.27 | -2.03 | 66.2 | 100 | 100 | 100 |
